# Experiment: not given
# Conditions: cited from earlier work
row,Structure (SMILES),Chemical form; Solubility in water
1,"[Cl][Cu][Cl] [Cu, copper chloride]",706 mg/mL
2,"[Cl][Cr]([Cl])[Cl] [Cr, chromium chloride]",585 mg/mL
3,"[Cl-].[Cl-].[Zn+2] [Zn, zinc chloride]",4.32 kg/L

# Experiment: Full factorial DoE on the stability of Selenite (container material, pH, sterilization, storage temperature, dissolved oxygen)
# Format: physicochemical
# Conditions: absence of stable amount of DO in the said range, storage for more than 1-3 months
# Experimental: A full factorial DoE was designed to evaluate the impact of five factors on the stability of Selenite:
# Container material: an interaction between Selenite and plastic bags material was previously highlighted. To evaluate this factor a neutral material i.e. glass bottles was used as a comparison to plastic bags.
# pH of the solution: all previous studies were conducted at pH<3.5 to ensure stability of Fe. A comparison with a native pH>7 obtained by simple dilution of Selenite into MilliQ water allowed to evaluate the impact of this parameter.
# Sterilization: the terminal heat sterilization conducted on samples may initiate degradative chemical reactions by heat exposure. Unsterilized VS sterilized samples were compared regarding Selenite stability to assess the impact of this process step.
# Storage temperature: accelerated stability studies are classically conducted at 40° C. However, selenite might be sensitive to it and a comparison with samples stored at 5° C. was conducted.
# Dissolved oxygen content: oxygen is involved in many redox reactions most of the time deleterious for macro and micronutrients (particularly vitamins). To assess the impact of this parameter on Selenite stability, solutions of Selenite were flushed either with oxygen (up to saturation at about 8 ppm) or with nitrogen (DO<0.5 ppm).
# All combinations of factors were produced and stored under appropriate conditions for 6 months. They were then submitted to several tests to evaluate the impact of each factor on several responses.
# The following readouts were performed in order to assess the impact of the factors listed above:
# Se assay to evaluate the degradation of Selenium.
# Visual inspection of the samples to detect any precipitate, particles or discoloration.
# pH measurement to evaluate the evolution of sample pH after 6 months storage.
# Dissolved oxygen measurement to evaluate the evolution of the dissolved oxygen after 6 months of storage. […]
row,Structure (SMILES),Stability in solution
1,"O=[Se](O)O [Selenite, sodium selenite]",instable

# Same assay, conditions: products with stable DO concentration of above 0.5 ppm, specifically 0.5 ppm to 8 ppm
row,Structure (SMILES),Stability in solution
1,"O=[Se](O)O [Selenite, sodium selenite]",stable

# Same assay, conditions: regression of Se assay against log dissolved oxygen, sterilized samples stored at 40° C. (FIG. 2)
row,Structure (SMILES),Oxygen amount sufficient to ensure the stability of Selenite in solution
1,"O=[Se](O)O [Selenite, sodium selenite]",around 0.5 ppm

# Experiment: Stability of a mix of the 9 TE at pH 2.2 with 200 mM malic acid in a glass bottle
# Format: physicochemical
# Conditions: heat sterilized, 6 months at 5° C., about 3 ppm dissolved oxygen, pH 2.2, 200 mM malic acid
# Experimental: The presence of oxygen promotes selenite stability. To ensure that it is not deleterious to another TE the stability of a mix of the 9 TE of interest (i.e. Zn, Cu, Cr, Mo, Mn, Fe, I, F & Se) was evaluated at pH 2.2 with 200 mM of malic acid (to ensure Iodide stability) and stored in a glass bottle (so containing about 3 ppm of dissolved oxygen). The solution was heat sterilized and stored 6 months at 40° C. or 5° C. (T6M 40° C. and T6M 5° C., respectively).
row,Structure (SMILES),"Concentration recovered, T6 M 5° C."
1,"[I-].[K+] [I, potassium iodide]",3167 ng/mL
2,"[Cl][Cu][Cl] [Cu, copper chloride]",9784 ng/mL
3,"[Cl][Cr]([Cl])[Cl] [Cr, chromium chloride]",306 ng/mL
4,"[Cl-].[Cl-].[Zn+2] [Zn, zinc chloride]",158347 ng/mL
5,"[Na+].[Na+].[O]=[Mo](=[O])([O-])[O-] [Mo, sodium molybdate]",653 ng/mL

# Same assay, conditions: heat sterilized, 6 months at 5° C., about 3 ppm dissolved oxygen, relative to theoretical concentration
row,Structure (SMILES),"Percentage of the recovered TE, T6 M 5° C."
1,"[I-].[K+] [I, potassium iodide]",78.6%
2,"[Cl][Cu][Cl] [Cu, copper chloride]",81.1%
3,"[F-].[Na+] [F, sodium fluoride]",94%
4,"[Cl][Cr]([Cl])[Cl] [Cr, chromium chloride]",77.3%
5,"[Cl-].[Cl-].[Zn+2] [Zn, zinc chloride]",77.8%
6,"[Na+].[Na+].[O]=[Mo](=[O])([O-])[O-] [Mo, sodium molybdate]",79.9%

# Same assay, conditions: heat sterilized, 6 months at 40° C., about 3 ppm dissolved oxygen, pH 2.2, 200 mM malic acid
row,Structure (SMILES),"Concentration recovered, T6 M 40° C."
1,"[I-].[K+] [I, potassium iodide]",3401 ng/mL
2,"[Cl][Cu][Cl] [Cu, copper chloride]",10504 ng/mL
3,"[Cl][Cr]([Cl])[Cl] [Cr, chromium chloride]",329 ng/mL
4,"[Cl-].[Cl-].[Zn+2] [Zn, zinc chloride]",171822 ng/mL
5,"[Na+].[Na+].[O]=[Mo](=[O])([O-])[O-] [Mo, sodium molybdate]",707 ng/mL

# Same assay, conditions: heat sterilized, 6 months at 40° C., about 3 ppm dissolved oxygen, relative to theoretical concentration
row,Structure (SMILES),"Percentage of the recovered TE, T6 M 40° C."
1,"[I-].[K+] [I, potassium iodide]",84.4%
2,"[Cl][Cu][Cl] [Cu, copper chloride]",87.1%
3,"[F-].[Na+] [F, sodium fluoride]",88%
4,"[Cl][Cr]([Cl])[Cl] [Cr, chromium chloride]",83.1%
5,"[Cl-].[Cl-].[Zn+2] [Zn, zinc chloride]",84.4%
6,"[Na+].[Na+].[O]=[Mo](=[O])([O-])[O-] [Mo, sodium molybdate]",86.6%

# Source: US12714725B2, “Stabilization of selenite in a nutritional solution by dissolved oxygen” (BAXTER INTERNATIONAL INC., priority 2019, dated 2026)
